In this assay the test system is castrated immature rats. Nature of the assay: In vivo anti-androgenic activity in castrated immature rats treated with testosterone propionate. Set-up: species or system rat. The text has this: […] male Wistar rats were obtained from the Animal House Colony, Research Institute of Ophthalmology, Giza, Egypt. Prepubertal male rats aged 3 weeks were castrated using the scrotal route under ether anesthesia.

Data on 1 molecule can be found in PMC4264242, “Androgen Receptor Antagonists and Anti-Prostate Cancer Activities of Some Newly Synthesized Substituted Fused Pyrazolo-, Triazolo- and Thiazolo-Pyrimidine Derivatives” (International Journal of Molecular Sciences, 2014).

In general, ED50 refers to the dose at which the effect has come halfway, by size or by number of responders.

SMILES strings stand for the structures.

For the molecule `CC(O)(CS(=O)(=O)c1ccc(F)cc1)C(=O)Nc1ccc(C#N)c(C(F)(F)F)c1` (centres unmarked) [Bicalutamide, reference compound], the ED50 (Rattus norvegicus, castrated immature rats, TP 0.5 mg/kg s.c., compound p.o., read-out: ED50, in vivo anti-androgen activity) came to 1.6 mg/kg. In addition, the “% (Inhibition), in vivo anti-androgen activity” value (inhibition of TP effect (TP 0.5 mg/kg s.c. once daily for 5 days), tested compound 10-30 mg/kg p.o.) is 75%.
